Earlier results in US4690936A (priority 1980, dated 1987).
Non-standard residues stand in square brackets, D forms with d. Residues, ends and D or L forms follow the SMILES beside them. No end group written: not given here. pGlu = O=C1CC[C@@H](C(=O)O)N1

Test system: ACE
Conditions: competitive substrate rather than true inhibitor

Compound	type of ACE interaction (lower Km than angiotensin I)
C[C@H](NC(=O)[C@H](Cc1c[nH]c2ccccc12)NC(=O)[C@H](CCCCN)NC(=O)[C@@H]1CCC(=O)N1)C(=O)N1CCC[C@H]1C(=O)O [BPP5a, <GluLysTrpAlaPro] ([pGlu]KWAP-OH)	competitive substrates
RPPGFSPFR [bradykinin]	competitive substrates
